Results reported in patent US9617311B2, “Use of PEDF-derived polypeptides for promoting stem cells proliferation and wound healing” (Mackay Memorial Hospital, priority 2011, dated 2017).

What was measured:
[1] = tested on: limbal epithelial stem cells (LSCs); assay: In vitro LSC proliferation, BrdU pulse-labeling with ΔNp63α immunostaining; assay type: cell-based, New Zealand white rabbits; conditions: BrdU 2 hours; for percentage of BrdU and ΔNp63α-double positive cells per total ΔNp63α-positive cells: 25 nM peptide or 4.5 nM PEDF in medium, control medium 3.0±0.5%, mean±SEM
Description: LSCs were isolated from six-month-old New Zealand white rabbits and used for cell-suspension culture in accordance with the method previously described by Cheng et al. (The growth-promoting effect of KGF on limbal epithelial cells is mediated by upregulation of DeltaNp63alpha through the p38 pathway. J Cell Sci 2009; 122 (Pt 24): 4473-4480) and Wang et al. (Importin 13 serves as a potential marker for corneal epithelial progenitor cells. Stem Cells 2009; 27: 2516-2526) with a slight modification. Rabbit limbal tissues were washed in PBS containing 100 U/ml penicillin and 50 μg/ml gentamicin. After carefully removing the iris, and excessive sclera, the limbal rings were exposed to dispase II (1.2 IU/ml in Hanks' balanced salt solution free of Mg^2+ and Ca^2+) at 4° C. for 16 hours. The loosened epithelial sheets were removed with a cell scraper and separated into single cells by enzymatic digestion (0.05% trypsin, and 0.01% EDTA) for 15 min at 37° C. with gentle shaking and transferred to a stop medium (9 ml of HEPES-buffered DMEM containing 10% FBS). Cells were then collected by centrifugation (400×g for 5 min).
About 1×10^5 cells were seeded on each wells of a 6-well plate and incubated in a DMEM/Ham's F-12 basal medium (10 mM HEPES, 5 ng/ml human EGF, 1% SITE liquid medium, antibiotic-antimicotic solutions, 0.5% DMSO and 0.5 μg/ml hydrocortisone) supplemented with 10% FBS for 2 days, and then shifted to a basal medium or basal medium containing 4.5 nM PEDF, 25 nM 39-mer, 25 nM 34-mer, 25 nM 29-mer, 25 nM 25-mer, 25 nM 20-mer, 25 nM 18-mer, 25 nM Mo 29-mer or 25-nM Mo 20-mer. The cells were continued cultivated at 37° C. under 5% CO2 for another 3 days until they reached confluence (passage 0). LSCs were co-cultured with MMC-treated NIH-3T3 fibroblast feeder cells located within trans-well (0.4 μm pore, BD Biosciences, Bedford, Mass.). For passage purpose, near-confluent cells were harvested again by enzymatic treatment (i.e., 0.25% trypsin), and then 1×10^5 subcultured cells were further cultured in the respective medium, and proliferative capacity of cells was compared every 4 days after continuously culture-subculture (passage).
(§1) De-paraffinized tissue sections or 4% paraformaldehyde-fixed LSCs were blocked with 10% goat serum and 5% BSA in PBST (PBS containing 0.1% Tween-20) for 1 hour. Staining was done using primary antibodies against ΔNp63α (1:150 dilution), BrdU (1:250 dilution), and keratin-3 (1:250 dilution) at 37° C. for 2 hours, followed by incubation with the appropriate rhodamine- or FITC-conjugated donkey IgG (1:500 dilution) for 1 hour at RT. Nuclei were identified by counterstaining with Hoechst 33258 for 7 minutes. Images were captured using a Zeiss epifluorescence microscope with a CCD camera and photographs were taken by using the Axiovert software.
2×10^5 limbal cells (the 1st passage) were seeded at a slide coated with FNC COATING MIX® solution (Athena Enzyme Systems, Baltimore, Md.) and incubated with a culture medium for one day. BrdU (final, 10 μM) was added to the culture for 2 hours. After being fixed with 4% paraformaldehyde, cells were exposed to cold methanol for 2 minutes, and then treated with 1 N HCl at RT for 1 hour before performing immunofluorescence. For animal study, BrdU was reconstituted in DMSO as stock (80 mM). 10 μl of BrdU mixed with 90 μl of PBS was intraperitoneally injected into mouse 3 hours prior to euthanasia. DNA synthesis was assessed by BrdU labeling with anti-BrdU antibodies.

[2] = tested on: full-thickness skin excisional wounds; assay: Skin wound healing in mice, wound area from photographs; assay type: in vivo, C57L/B6 mice; conditions: for residual epithelial defects, percentage of the original wound: 25 μl skin ointment with 50 μM peptide once daily
Description: FIG. 6A provides photographs and FIG. 6B is a histogram, and together, they illustrate the skin (epithelial) wound-healing of mice from treatment groups according to another example of the present disclosure. 4 mm punch wounds were made on the dorsal side of C57/B6 mice. Skin ointment was treated once a day. Photographs of the wounded skin and ruler (scale 10 mm) were captured with a CCD camera (Olympus). The residual epithelial defect (%) is presented as percentage of the original wound. Data are shown as mean±SE.
To perform full-thickness skin excision, 8- to 10-week-old C57L/B6 mice were respectively anesthetized by an intraperitoneal injection of a mixture of zoletil (6 mg/kg) and xylazine (3 mg/kg). Two full-thickness skin excisional wounds, 4 mm in diameter were made on either side of the dorsal midline using Sklar Tru-Punch disposable biopsy punch (Sklar, West Chester, Pa., USA). In each treatment group (n=6), the skin wound was treated with 25 μl skin ointment (containing 50 μM synthetic peptide and 0.006 μl DMSO vehicle) once daily after the skin scraping. In the control group (n=6), skin wound was treated with 25 μl of skin ointment with equal concentration of DMSO. Each gram of the above skin ointment contains 5 mg neomycin sulfate and 12.5 mg Bacitracin Zinc. Wounds were left uncovered and harvested 4 and 7 days after injury. Mice were housed individually during the healing period.
The area of wound was quantified from the photographs using a computer-assisted image analyzer (Adobe Photoshop CS3 10.0) and was calculated as the percentage of residual epithelial defect at each time point/initial wound area.

LSCs in the limbus = assay: In vivo LSC proliferation in limbus 24 hours after corneal wounding, BrdU/ΔNp63α double-immunostaining; design: species or system C57BL/6 mice; conditions: peptide eye ointment, control 15.0±7.6%
Description: as §1
2×10^5 limbal cells (the 1st passage) were seeded at a slide coated with FNC COATING MIX® solution (Athena Enzyme Systems, Baltimore, Md.) and incubated with a culture medium for one day. BrdU (final, 10 μM) was added to the culture for 2 hours. […] DNA synthesis was assessed by BrdU labeling with anti-BrdU antibodies. […]
Each synthetic peptide (the 39-mer, 34-mer, 29-mer, 25-mer, 20-mer, 18-mer, Mo 29-mer or Mo 20-mer) was reconstituted in DMSO as stock (5 mM) and mixed with TOBREX® eye ointment (Alcon; containing 0.3% Tobramycin and 0.5% Chlorobutanol) to a concentration 50 μM. […] Wound size was determined by staining with topical fluorescein (Fluor-I-Strip, Ayerst Laboratories, Philadelphia, Pa.) and photographed with a digital camera. […]

[3] = day 4 post-injury, control 61.5±3.2%
[4] = day 7 post-injury, control 44.5±5.3%

Sequence	percentage of BrdU and ΔNp63α-double positive cells per total ΔNp63α-positive cells [1] [%]	residual epithelial defects, percentage of the original wound [2, 3] [%]	residual epithelial defects, percentage of the original wound [2, 4] [%]	levels of BrdU- and ΔNp63α-positive cells in the limbus (LSCs in the limbus) [%]	enhanced LSC proliferation versus control medium ([1]; 25 nM peptide in medium)	promotion of skin wound healing ([2]; days 4 and 7, 50 μM peptide skin ointment once daily)
SLGAEHRTESVIHRALYYDL [Mo 20-mer, synthetic peptide derived from mouse PEDF]	26.3±2.2	49.6±3.9	20.3±7.5			
SLGAEHRTESVIHRALYYDLITNPDIHST [Mo 29-mer, synthetic peptide derived from mouse PEDF]	27.1±1.8	47.8±4.3	16.8±6.6			
SLGAEQRTESIIHRALYYDLISSPDIHGT [29-mer, short synthetic PEDF peptide derived from the 39-mer]	33.9±2.6	46.3±3.7	18.2±4.3	43.2±4.6		
EQRTESIIHRALYYDLIS [18-mer]					enhanced proliferation was not observed	not able to promote wound healing
SLGAEQRTESIIHRALYYDL [20-mer, synthetic peptide identical to residues 11-30 of the 39-mer]	31.8±1.7	50.1±3.8	20.0±4.9	42.4±4.3		
